Source: patent US20250319100A1, “ANTI-TUMOR COMBINED PREPARATION COMPRISING HYDROXYPROGESTERONE CAPROATE AND USE THEREOF” (SHENZHEN EVERGREEN THERAPEUTICS CO., LTD., priority 2021, published 2025)

Legend:
[1] = test system: 4T1-hPD-L1 cells; test: Tumor growth inhibition in Balb/c mice subcutaneously inoculated with 4T1 cells overexpressing human PD-L1; format: in vivo; details: for Tumor growth inhibition (result in words): FIG. 1, tumor volume growth trend post-administration
Experimental: Antibody Anti-PD-L1 was purchased from Rongchang Biopharmaceuticals (Yantai) Co., Ltd., batch number: RC98-1-A20170426, with a storage solution concentration of 6.87 mg/ml, dissolved in 0.9% sodium chloride solution. Prior to each administration, the Anti-PD-L1 was prepared by diluting it in 0.9% sodium chloride solution to obtain a concentration of 1 mg/ml.
Hydroxyprogesterone Caproate (OHPC) was purchased from Hongyan Pharmaceutical and Chemical Co., Ltd., as a powder. Prior to each administration, OHPC powder was dissolved in DMSO. Once fully dissolved, it was diluted in sesame oil to obtain an OHPC concentration of 4 mg/ml for the investigational drug solution.
Murine breast cancer 4T1 cells were purchased from Beijing Biosynthgene Biotech Co., Ltd. Cells were cultured at 37° C. and 5% CO2 in DMEM culture medium containing 10% inactivated fetal bovine serum. The 4T1 cells were genetically modified using conventional methods to overexpress human PD-L1, and these cells were named 4T1-hPD-1.
Female Balb/c mice (6-9 weeks old, weighing 16-22 g), SPF grade, were subcutaneously inoculated with 5×10^4 cells/0.1 ml concentration of 4T1-hPD-1 cells suspended in PBS at a volume of 0.1 ml on the right side. When the average tumor volume reached approximately 100 mm3, appropriate mice were selected based on tumor volume and weight and were evenly distributed into four experimental groups, each with 8 mice. Drug administration commenced on the same day as outlined in the table below:
Throughout the observation period, tumor volume and animal weight were measured weekly, and the values were recorded. Upon completion of the observation period, the experiment was concluded.
Measurements of tumor volume were conducted twice a week post-grouping using a vernier caliper. Prior to euthanasia, tumor dimensions including the longest and shortest diameters were measured. The formula used to calculate tumor volume: Tumor Volume=0.5×Longest Diameter×Shortest Diameter^2.
Ti represents the mean tumor volume of the treatment group on day i of drug administration, TO denotes the mean tumor volume of the treatment group on day 0 of drug administration. Vi stands for the mean tumor volume of the solvent control group on day i of drug administration, and VO indicates the mean tumor volume of the solvent control group on day 0 of drug administration.
Original data from observations and measurements were recorded. Analysis and processing were based on this raw data. Results were expressed as Mean±Standard Error of Mean (SEM). Statistical analysis was performed on tumor volume data, where P<0.05 was considered statistically significant. Analysis was conducted considering both statistical and biological significance.

[2] = test system: CD8+ T cells in tumor tissue; test: Infiltration of CD8+ T cells in tumor tissue (CD8 staining of paraffin tumor sections); format: in vivo, Balb/c mice; details: FIGS. 2 and 3, CD8 staining density IOD/area, p<0.01 OHPC group vs control group
Experimental: FIG. 2 illustrates the infiltration of CD8 T cells in mouse tumors post-administration (400× magnification). FIG. 3 presents the analysis of CD8 staining density on tumor sections after administration, represented in integrated optical density (IOD)/area, where ** denotes p<0.01 compared between the OHPC group and the control group. At the conclusion of the experiment, tumor tissue was embedded in paraffin, sectioned, and stained for CD markers. This was conducted to compare the infiltration of CD8+ T cells within tumors across different groups.

CCCCCC(=O)O[C@]1(C(C)=O)CC[C@H]2[C@@H]3CCC4=CC(=O)CC[C@]4(C)[C@H]3CC[C@@]21C [OHPC, 17α-Hydroxyprogesterone caproate]
Tumor Volume Day 17 ([1]; Day 17, Anti-PD-L1 10 mg/kg intravenous and/or OHPC 20 mg/kg intramuscular, twice per week, Mean ± Standard Error): 1203 ± 384 mm^3
TGITV (tumor growth inhibition rate by tumor volume) ([1]; Day 17 versus vehicle (PBS) control, Anti-PD-L1 10 mg/kg intravenous and/or OHPC 20 mg/kg intramuscular, twice per week): −14%
Tumor growth inhibition (result in words) [1]: no inhibitory effect
Tumor growth inhibition (result in words) ([1]; listed as hydroxyprogesterone caproate): augments the anti-tumor activity of the monoclonal antibody Anti-PD-L1
Tumor Volume Pre-administration ([1]; baseline before first dose, Mean ± Standard Error, 8 mice per group): 87 ± 24 mm^3
Infiltration of CD8+ T cells in tumor tissue (result in words) [2]: significantly enhances the infiltration of CD8+ T cells
Infiltration of CD8+ T cells in tumor tissue (result in words) ([2]; listed as Hydroxyprogesterone Caproate (OHPC)): notably enhanced the infiltration of CD8+ T cells
